Laboratory results published in publication PMC10412597, “Small molecule branched-chain ketoacid dehydrogenase kinase (BDK) inhibitors with opposing effects on BDK protein levels” (Nature Communications, 2023).

Tests used:
Parameters in all cases: Invitrogen kinase panel, per cent inhibition of kinase activity
Settings in all cases: 10 µM, inhibitor
[1] = biological target: T1, JAK3 (Homo sapiens, UniProt P52333)
T1 sequence (P52333 1-1124): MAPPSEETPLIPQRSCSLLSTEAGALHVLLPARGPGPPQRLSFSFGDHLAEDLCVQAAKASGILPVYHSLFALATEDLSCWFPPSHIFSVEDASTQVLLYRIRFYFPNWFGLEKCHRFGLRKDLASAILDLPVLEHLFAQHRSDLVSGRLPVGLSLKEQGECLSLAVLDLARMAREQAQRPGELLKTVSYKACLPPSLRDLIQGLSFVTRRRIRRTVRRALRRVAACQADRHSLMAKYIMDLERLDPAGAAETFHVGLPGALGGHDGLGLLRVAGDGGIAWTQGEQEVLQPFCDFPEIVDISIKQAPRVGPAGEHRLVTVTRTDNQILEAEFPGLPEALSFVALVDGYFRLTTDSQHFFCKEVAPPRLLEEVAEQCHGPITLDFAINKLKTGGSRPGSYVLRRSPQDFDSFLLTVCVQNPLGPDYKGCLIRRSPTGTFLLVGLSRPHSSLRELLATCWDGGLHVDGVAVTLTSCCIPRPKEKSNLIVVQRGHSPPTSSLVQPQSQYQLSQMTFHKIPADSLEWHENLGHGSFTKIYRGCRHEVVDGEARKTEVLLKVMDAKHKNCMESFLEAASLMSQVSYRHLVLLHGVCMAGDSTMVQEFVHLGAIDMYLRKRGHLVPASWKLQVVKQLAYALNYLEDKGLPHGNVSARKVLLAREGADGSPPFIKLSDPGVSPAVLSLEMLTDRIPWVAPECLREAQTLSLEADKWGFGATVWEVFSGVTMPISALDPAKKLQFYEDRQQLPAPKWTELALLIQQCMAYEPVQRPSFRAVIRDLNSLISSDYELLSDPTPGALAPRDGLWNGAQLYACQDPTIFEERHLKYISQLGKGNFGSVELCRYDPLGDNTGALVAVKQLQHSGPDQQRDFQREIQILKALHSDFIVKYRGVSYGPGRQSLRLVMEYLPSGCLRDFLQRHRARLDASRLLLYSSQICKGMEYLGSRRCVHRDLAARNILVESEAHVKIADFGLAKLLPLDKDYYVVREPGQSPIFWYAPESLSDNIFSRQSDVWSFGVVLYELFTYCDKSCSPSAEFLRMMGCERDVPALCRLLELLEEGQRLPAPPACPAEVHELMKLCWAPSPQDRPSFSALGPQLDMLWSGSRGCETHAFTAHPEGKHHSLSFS
Procedure: (§1) To discover a potent and selective BDK inhibitor, a subset of the Pfizer compound collection was screened. […] Off target activity was assessed in both CEREP and kinase panels (Supplementary Tables 2, 3).

[2] = biological target: CAMK2A (Homo sapiens, UniProt Q9UQM7)
Procedure: as §1

[3] = biological target: T2, PDPK1 (Homo sapiens, UniProt O15530)
T2 sequence (O15530 1-556): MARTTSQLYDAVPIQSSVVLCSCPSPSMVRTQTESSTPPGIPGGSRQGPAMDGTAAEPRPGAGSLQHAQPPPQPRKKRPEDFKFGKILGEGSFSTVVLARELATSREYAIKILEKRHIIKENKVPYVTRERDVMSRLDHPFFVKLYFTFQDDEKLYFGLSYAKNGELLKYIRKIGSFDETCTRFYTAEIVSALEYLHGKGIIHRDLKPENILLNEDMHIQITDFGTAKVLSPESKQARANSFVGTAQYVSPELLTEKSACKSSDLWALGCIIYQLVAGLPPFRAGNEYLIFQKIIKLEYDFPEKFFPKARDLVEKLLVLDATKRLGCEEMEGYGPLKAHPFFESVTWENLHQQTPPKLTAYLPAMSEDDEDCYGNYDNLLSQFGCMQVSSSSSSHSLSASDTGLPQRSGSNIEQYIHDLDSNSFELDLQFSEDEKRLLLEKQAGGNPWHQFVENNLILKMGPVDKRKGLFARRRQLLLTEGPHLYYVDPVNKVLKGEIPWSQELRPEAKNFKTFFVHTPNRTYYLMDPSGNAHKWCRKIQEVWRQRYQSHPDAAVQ
Procedure: as §1

[4] = biological target: T3, Mitogen-Activated Protein Kinase Kinase Kinase Kinase 4 (MAPK4K4) (Homo sapiens, UniProt O95819)
T3 construct: gene MAP4K4
T3 sequence (O95819 whole entry): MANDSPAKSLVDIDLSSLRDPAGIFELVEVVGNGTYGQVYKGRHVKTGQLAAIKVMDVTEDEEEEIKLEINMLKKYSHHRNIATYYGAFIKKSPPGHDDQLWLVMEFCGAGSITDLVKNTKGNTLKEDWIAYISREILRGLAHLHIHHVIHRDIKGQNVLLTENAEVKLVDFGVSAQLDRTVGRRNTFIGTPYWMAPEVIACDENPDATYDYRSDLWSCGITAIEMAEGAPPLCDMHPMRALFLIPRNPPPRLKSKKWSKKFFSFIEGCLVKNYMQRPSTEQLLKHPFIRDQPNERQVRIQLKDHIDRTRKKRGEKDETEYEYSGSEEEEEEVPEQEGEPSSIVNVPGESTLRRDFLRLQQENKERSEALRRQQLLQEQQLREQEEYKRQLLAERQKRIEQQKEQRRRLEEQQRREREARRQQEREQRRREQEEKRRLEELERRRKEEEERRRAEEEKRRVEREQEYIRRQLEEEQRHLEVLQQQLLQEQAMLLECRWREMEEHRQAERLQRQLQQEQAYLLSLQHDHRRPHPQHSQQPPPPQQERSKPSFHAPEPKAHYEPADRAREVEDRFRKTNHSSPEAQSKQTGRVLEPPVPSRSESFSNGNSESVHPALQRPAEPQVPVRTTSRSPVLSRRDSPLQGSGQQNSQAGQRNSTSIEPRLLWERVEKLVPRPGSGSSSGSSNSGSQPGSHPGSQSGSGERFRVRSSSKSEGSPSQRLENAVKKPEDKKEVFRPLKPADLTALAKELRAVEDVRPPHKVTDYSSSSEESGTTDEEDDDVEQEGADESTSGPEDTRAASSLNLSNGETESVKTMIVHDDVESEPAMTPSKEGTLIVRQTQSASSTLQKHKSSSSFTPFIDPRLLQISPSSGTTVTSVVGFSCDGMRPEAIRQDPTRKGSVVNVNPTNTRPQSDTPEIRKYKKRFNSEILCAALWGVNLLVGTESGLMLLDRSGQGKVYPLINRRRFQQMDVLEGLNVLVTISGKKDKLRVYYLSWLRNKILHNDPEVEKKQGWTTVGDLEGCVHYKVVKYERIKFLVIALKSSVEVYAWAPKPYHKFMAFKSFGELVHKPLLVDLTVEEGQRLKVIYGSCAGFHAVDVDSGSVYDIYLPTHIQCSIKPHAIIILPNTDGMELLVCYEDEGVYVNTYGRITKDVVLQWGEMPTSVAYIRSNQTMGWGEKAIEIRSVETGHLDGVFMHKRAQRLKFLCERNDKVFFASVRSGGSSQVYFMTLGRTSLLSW
Procedure: as §1

[5] = biological target: CSK tyrosine Kinase (Homo sapiens, UniProt P41240)
Procedure: as §1

[6] = biological target: PRKDC (Homo sapiens, UniProt P78527)
Procedure: as §1

[7] = biological target: EPHA2 (Homo sapiens, UniProt P29317)
Procedure: as §1

[8] = biological target: ROCK1 (Homo sapiens, UniProt Q13464)
Sequence of ROCK1 (Q13464 whole entry): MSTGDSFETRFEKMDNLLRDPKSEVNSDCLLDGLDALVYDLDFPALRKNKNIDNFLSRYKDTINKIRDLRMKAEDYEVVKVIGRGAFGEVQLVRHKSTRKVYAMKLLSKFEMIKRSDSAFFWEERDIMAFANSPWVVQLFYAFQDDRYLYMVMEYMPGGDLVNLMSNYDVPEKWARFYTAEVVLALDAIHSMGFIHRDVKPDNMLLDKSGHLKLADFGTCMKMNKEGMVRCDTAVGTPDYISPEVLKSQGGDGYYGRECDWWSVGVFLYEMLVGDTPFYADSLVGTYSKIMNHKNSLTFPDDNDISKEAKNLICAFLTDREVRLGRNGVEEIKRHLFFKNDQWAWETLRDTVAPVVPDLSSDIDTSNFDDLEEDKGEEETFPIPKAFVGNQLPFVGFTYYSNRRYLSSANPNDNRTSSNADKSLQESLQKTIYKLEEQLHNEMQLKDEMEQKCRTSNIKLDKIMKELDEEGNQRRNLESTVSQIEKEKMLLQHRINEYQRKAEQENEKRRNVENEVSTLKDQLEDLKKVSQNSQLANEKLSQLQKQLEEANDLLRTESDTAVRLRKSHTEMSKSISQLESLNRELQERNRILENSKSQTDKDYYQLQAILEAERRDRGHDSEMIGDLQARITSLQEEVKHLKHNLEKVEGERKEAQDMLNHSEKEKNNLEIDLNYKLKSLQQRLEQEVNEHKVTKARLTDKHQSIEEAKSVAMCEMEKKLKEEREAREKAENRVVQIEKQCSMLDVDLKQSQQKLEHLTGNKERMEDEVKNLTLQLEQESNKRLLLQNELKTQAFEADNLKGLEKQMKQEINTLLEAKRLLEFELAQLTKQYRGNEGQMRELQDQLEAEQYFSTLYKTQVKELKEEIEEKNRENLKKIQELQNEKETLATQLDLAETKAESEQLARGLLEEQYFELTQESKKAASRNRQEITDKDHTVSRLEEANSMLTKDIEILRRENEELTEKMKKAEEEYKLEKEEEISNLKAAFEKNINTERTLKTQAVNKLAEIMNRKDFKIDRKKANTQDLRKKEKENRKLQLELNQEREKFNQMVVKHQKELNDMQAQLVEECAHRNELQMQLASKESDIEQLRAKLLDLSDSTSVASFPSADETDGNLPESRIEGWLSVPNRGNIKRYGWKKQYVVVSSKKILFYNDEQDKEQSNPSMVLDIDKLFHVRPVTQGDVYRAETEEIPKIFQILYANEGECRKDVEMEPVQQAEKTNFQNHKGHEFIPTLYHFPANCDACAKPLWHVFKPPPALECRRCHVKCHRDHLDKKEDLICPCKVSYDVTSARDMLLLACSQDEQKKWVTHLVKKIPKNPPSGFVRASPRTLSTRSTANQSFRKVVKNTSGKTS
Procedure: as §1

[9] = biological target: KDR (Homo sapiens, UniProt P35968)
Sequence of KDR (P35968 whole entry): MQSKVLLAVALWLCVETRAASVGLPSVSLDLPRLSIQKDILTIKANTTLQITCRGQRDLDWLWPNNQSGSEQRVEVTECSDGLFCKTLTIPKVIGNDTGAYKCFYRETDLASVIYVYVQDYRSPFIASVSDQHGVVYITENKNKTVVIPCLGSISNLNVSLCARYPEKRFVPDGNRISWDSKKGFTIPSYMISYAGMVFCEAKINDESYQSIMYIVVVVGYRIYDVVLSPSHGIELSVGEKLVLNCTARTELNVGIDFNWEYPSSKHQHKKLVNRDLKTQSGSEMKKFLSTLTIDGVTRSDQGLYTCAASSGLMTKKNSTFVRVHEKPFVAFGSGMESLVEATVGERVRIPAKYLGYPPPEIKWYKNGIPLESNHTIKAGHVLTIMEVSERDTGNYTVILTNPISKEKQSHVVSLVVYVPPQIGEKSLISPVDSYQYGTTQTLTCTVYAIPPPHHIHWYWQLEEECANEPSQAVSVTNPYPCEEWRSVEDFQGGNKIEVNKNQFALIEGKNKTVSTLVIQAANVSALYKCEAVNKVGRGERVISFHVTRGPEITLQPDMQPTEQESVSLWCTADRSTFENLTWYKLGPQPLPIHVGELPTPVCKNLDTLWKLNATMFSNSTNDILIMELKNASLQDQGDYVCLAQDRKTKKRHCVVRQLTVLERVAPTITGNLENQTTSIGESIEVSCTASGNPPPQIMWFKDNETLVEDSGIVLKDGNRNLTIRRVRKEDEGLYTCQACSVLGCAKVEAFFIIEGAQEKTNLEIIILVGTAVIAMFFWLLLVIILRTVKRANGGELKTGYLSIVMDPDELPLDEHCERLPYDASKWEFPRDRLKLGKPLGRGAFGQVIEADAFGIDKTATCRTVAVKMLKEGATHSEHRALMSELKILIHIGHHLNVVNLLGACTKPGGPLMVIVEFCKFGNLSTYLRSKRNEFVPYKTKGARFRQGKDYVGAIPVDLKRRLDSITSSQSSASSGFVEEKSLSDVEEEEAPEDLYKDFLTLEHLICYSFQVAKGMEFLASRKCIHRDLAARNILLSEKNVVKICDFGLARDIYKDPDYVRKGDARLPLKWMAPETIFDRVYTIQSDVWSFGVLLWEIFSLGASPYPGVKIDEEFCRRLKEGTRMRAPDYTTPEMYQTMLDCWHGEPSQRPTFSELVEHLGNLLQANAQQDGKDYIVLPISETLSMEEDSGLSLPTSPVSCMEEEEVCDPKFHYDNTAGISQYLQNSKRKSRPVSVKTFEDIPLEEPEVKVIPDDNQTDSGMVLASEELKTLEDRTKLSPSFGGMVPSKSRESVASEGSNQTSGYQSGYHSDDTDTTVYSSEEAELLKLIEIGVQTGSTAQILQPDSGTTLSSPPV
Procedure: as §1

[10] = biological target: T4, Epidermal Growth Factor Receptor (Homo sapiens, UniProt P00533)
T4 construct: gene EGFR
Procedure: as §1

[11] = biological target: FGFR1 (Homo sapiens, UniProt P11362)
Sequence of FGFR1 (P11362 whole entry): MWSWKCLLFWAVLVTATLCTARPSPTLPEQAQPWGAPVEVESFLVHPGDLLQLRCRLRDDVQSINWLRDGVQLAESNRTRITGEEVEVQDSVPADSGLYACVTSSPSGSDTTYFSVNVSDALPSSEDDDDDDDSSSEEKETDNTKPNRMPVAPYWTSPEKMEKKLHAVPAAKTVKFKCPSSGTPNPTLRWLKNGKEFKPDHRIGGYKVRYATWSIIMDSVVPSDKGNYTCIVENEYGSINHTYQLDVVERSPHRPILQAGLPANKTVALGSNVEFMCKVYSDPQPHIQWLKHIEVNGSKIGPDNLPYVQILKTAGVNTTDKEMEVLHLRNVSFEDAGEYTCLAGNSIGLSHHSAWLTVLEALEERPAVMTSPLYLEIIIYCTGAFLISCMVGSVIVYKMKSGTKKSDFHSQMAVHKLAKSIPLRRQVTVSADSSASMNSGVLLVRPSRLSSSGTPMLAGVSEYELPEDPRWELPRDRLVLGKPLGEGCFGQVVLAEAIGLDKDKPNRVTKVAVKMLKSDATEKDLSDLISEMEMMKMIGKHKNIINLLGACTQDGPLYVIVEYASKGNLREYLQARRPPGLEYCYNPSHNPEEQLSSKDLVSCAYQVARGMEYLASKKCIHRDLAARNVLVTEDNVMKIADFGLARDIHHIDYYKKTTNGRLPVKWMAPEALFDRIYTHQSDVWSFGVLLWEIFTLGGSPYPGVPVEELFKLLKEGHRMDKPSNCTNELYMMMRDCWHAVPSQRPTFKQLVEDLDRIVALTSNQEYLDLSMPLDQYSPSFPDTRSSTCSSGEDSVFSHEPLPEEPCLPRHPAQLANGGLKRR
Procedure: as §1

[12] = biological target: MKNK1 (Homo sapiens, UniProt Q9BUB5)
Procedure: as §1

O=C(O)c1sc2cc(F)sc2c1Cl [PF-07208254, 3-chloro-5-fluorothieno[3,2-b]thiophene-2-carboxylic acid]
ATP = 1 mM % Inhibition PF-07208254 [1]: -4.1% | ATP = Km % Inhibition PF-07208254 [1]: 0.9% | ATP = 1 mM % Inhibition PF-07208254 [2]: -0.3% | ATP = Km % Inhibition PF-07208254 [2]: 6.8% | ATP = 1 mM % Inhibition PF-07208254 [3]: -3.1% | ATP = Km % Inhibition PF-07208254 [3]: -3.2% | ATP = 1 mM % Inhibition PF-07208254 [4]: -7.5% | ATP = Km % Inhibition PF-07208254 [4]: 11.9% | ATP = Km % Inhibition PF-07208254 [5]: 2.9% | ATP = Km % Inhibition PF-07208254 [6]: 8.3% | ATP = 1 mM % Inhibition PF-07208254 [7]: -5.6% | ATP = Km % Inhibition PF-07208254 [7]: 0.5% | ATP = 1 mM % Inhibition PF-07208254 [8]: 0.8% | ATP = Km % Inhibition PF-07208254 [8]: 3.6% | ATP = 1 mM % Inhibition PF-07208254 [9]: 5.6% | ATP = Km % Inhibition PF-07208254 [9]: 1.1% | ATP = 1 mM % Inhibition PF-07208254 [10]: -7.2% | ATP = Km % Inhibition PF-07208254 [10]: -0.9% | ATP = 1 mM % Inhibition PF-07208254 [11]: -0.5% | ATP = Km % Inhibition PF-07208254 [11]: -0.5% | ATP = Km % Inhibition PF-07208254 [12]: 15.1%

CCC1(COc2ccc(-c3csc(-c4ccccc4C(=O)O)n3)cn2)CC1 [PF-07247685, 2-(4-{6-[(1-ethylcyclopropyl)methoxy]pyridin-3-yl}-1,3-thiazol-2-yl)benzoic acid]
ATP = 1 mM % Inhibition PF-07247685 [1]: -0.0% | ATP = Km % Inhibition PF-07247685 [1]: 0.8% | ATP = 1 mM % Inhibition PF-07247685 [2]: 3.5% | ATP = Km % Inhibition PF-07247685 [2]: 2.8% | ATP = 1 mM % Inhibition PF-07247685 [3]: 2.0% | ATP = Km % Inhibition PF-07247685 [3]: -0.6% | ATP = 1 mM % Inhibition PF-07247685 [4]: 3.2% | ATP = Km % Inhibition PF-07247685 [4]: 25.5% | ATP = Km % Inhibition PF-07247685 [5]: 4.3% | ATP = Km % Inhibition PF-07247685 [6]: 5.4% | ATP = 1 mM % Inhibition PF-07247685 [7]: 5.6% | ATP = Km % Inhibition PF-07247685 [7]: 0.6% | ATP = 1 mM % Inhibition PF-07247685 [8]: -0.9% | ATP = Km % Inhibition PF-07247685 [8]: 2.4% | ATP = 1 mM % Inhibition PF-07247685 [9]: 0.1% | ATP = Km % Inhibition PF-07247685 [9]: 2.0% | ATP = 1 mM % Inhibition PF-07247685 [10]: 1.2% | ATP = Km % Inhibition PF-07247685 [10]: -2.6% | ATP = 1 mM % Inhibition PF-07247685 [11]: 2.1% | ATP = Km % Inhibition PF-07247685 [11]: 8.8% | ATP = Km % Inhibition PF-07247685 [12]: 0.5%
